ChEMBL document CHEMBL6121051, “Dendritic Antifungal Peptides as Potent Agents against Drug-Resistant Candida albicans and Biofilm” (J Med Chem, 2025)
≈ marks a conversion by molar mass, not a printed value. Calls of active or inactive are those of the source. No cut-off for these calls is given here. Positions of bridges follow the written chain, without caps; N, C: chain ends. Residues, ends and D or L forms follow the SMILES beside them. Groups on a side chain read outwards from the residue. Chains are numbered I, II in the order given. *: point of attachment. Lauroyl = CCCCCCCCCCCC(=O)*; Octanoyl = CCCCCCCC(=O)*; Butyryl = CCCC(=O)*

What was measured:
Candida albicans [1] = assay: Antifungal activity against Candida albicans SP 3902 assessed as inhibition of fungal growth incubated for 48 hrs; type: functional
Candida albicans [2] = assay: Antifungal activity against Candida albicans 58288 assessed as inhibition of fungal growth incubated for 48 hrs; type: functional
Candida albicans [3] = assay: Antifungal activity against Candida albicans cgmcc 2.2086 assessed as inhibition of fungal growth incubated for 48 hrs; type: functional
Candida albicans [4] = assay: Antifungal activity against Candida albicans 2.3989 assessed as inhibition of fungal growth incubated for 48 hrs; type: functional
[5] = Cytotoxicity against human HEK293T cells assessed as cell survival rate at 128 ug/ml incubated for 4 hrs by MTT assay; type: toxicity, cell-based, HEK-293T; settings: dose 128 µg/ml, read-out: Activity
Candida albicans [6] = assay: Antifungal activity against Candida albicans SP 3903 assessed as inhibition of fungal growth incubated for 48 hrs; type: functional
Candida albicans [7] = assay: Antifungal activity against Candida albicans 14936 assessed as inhibition of fungal growth incubated for 48 hrs; type: functional
Candida albicans [8] = assay: Antifungal activity against fluconazole-resistant Candida albicans 56214 assessed as inhibition of fungal growth incubated for 48 hrs; type: functional
[9] = Toxicity against human RBC assessed as hemolysis rate at 128 ug/ml incubated for 1 hr; type: cell-based, Erythrocyte; settings: red blood cells (RBC), dose 128 µg/ml, read-out: Activity
Candida albicans [10] = assay: Antifungal activity against Candida albicans 17546 assessed as inhibition of fungal growth incubated for 48 hrs; type: functional
HEK-293T = assay: Cytotoxicity against human HEK293T cells assessed as cell viability at 8 to 128 ug/ml incubated for 4 hrs by MTT assay; type: toxicity, cell-based; settings: dose 8-128 µg/ml
Candida albicans [11] = assay: Antifungal activity against Candida albicans SP 3931 assessed as inhibition of fungal growth incubated for 48 hrs; type: functional
Candida albicans [12] = assay: Antifungal activity against fluconazole-resistant Candida albicans 56214 infected in ICR mouse assessed as reduction in IL-6 expression in skin wound at 1 mg/ml administered topically bid for 3 days starting at 12 hrs post-infection and measured after 7 days by immunofluorescence analysis; type: functional, organism-based; settings: time 7.0 day
Candida albicans [13] = assay: (§1) Antifungal activity against fluconazole-resistant Candida albicans 56214 infected in ICR mouse assessed as reduction in severity of skin infection at 1 mg/ml administered topically bid for 3 days starting at 12 hrs post-infection and measured after 7 days by PAS staining based analysis; type: functional, organism-based; settings: time 7.0 day
Candida albicans [14] = assay: Antifungal activity against fluconazole-resistant Candida albicans 56214 infected in ICR mouse assessed as wound healing with appearance of new skin tissue at 1 mg/ml administered topically bid for 3 days starting at 12 hrs post-infection and measured for 6 days; type: functional, organism-based; settings: time 6.0 day
Candida albicans [15] = assay: as §1, with “in oxidative stress by measuring decrease in ROS accumulation in” for “in severity of”, “skin wounds” for “skin infection”, “by fluorescence” for “by PAS”; type: functional, organism-based; settings: time 7.0 day
Candida albicans [16] = assay: Antifungal activity against fluconazole-resistant Candida albicans 56214 infected in ICR mouse assessed as reduction in TNF-alpha expression in skin wound at 1 mg/ml administered topically bid for 3 days starting at 12 hrs post-infection and measured after 7 days by immunofluorescence analysis; type: functional, organism-based; settings: time 7.0 day
Candida albicans [17] = assay: Antifungal activity against fluconazole-resistant Candida albicans 56214 infected in ICR mouse assessed as elimination of fungal hyphae on the infected skin at 1 mg/ml administered topically bid for 3 days starting at 12 hrs post-infection and measured after 7 days by PAS staining; type: functional, organism-based; settings: time 7.0 day
[18] = Cytotoxicity against mouse RAW264.7 cells assessed as cell survival rate at 128 ug/ml incubated for 4 hrs by MTT assay; type: toxicity, cell-based; settings: dose 128 µg/ml, read-out: Activity

Row | SMILES | MIC (Candida albicans [1]) [µM] | MIC (Candida albicans [2]) [µM] | MIC (Candida albicans [3]) [µM] | MIC (Candida albicans [4]) [µM] | viability at 4 h, 128 ug/ml [5] [%] | MIC (Candida albicans [6]) [µM] | MIC (Candida albicans [7]) [µM] | MIC (Candida albicans [8]) [µM] | hemolysis at 1 h, 128 ug/ml [9] [%] | MIC (Candida albicans [10]) [µM] | Activity (HEK-293T) | MIC (Candida albicans [11]) [µM] | Activity (Candida albicans [12]) | Activity (Candida albicans [13]) | Activity (Candida albicans [14]) | Activity (Candida albicans [15]) | Activity (Candida albicans [16]) | Activity (Candida albicans [17]) | viability at 4 h, 128 ug/ml [18] [%]
1 | CCCCCCCC(=O)NCC(=O)NCC(=O)NCC(=O)N[C@@H](CCCCNC(=O)[C@@H]1CCCN1C(=O)[C@H](CCCNC(=N)N)NC(=O)[C@@H]1CCCN1C(=O)[C@@H](N)CCCNC(=N)N)C(=O)N[C@@H](CCCCNC(=O)[C@@H]1CCCN1C(=O)[C@H](CCCNC(=N)N)NC(=O)[C@@H]1CCCN1C(=O)[C@@H](N)CCCNC(=N)N)C(=O)N[C@@H](CCCNC(=N)N)C(=O)N1CCC[C@H]1C(=O)N[C@@H](CCCNC(=N)N)C(=O)N1CCC[C@H]1C(N)=O (Octanoyl-GGGK([Pro-Arg-Pro-Arg])K([Pro-Arg-Pro-Arg])RPRP-NH2) | > 128 | > 128 | > 128 | > 128 | 95 | > 128 | > 128 | > 128 | < 2 | > 128 | Non-toxic | > 128 |  |  |  |  |  |  | 
2 | CCCCCCCC(=O)NCC(=O)NCC(=O)NCC(=O)N[C@@H](CCCCNC(=O)[C@@H]1CCCN1C(=O)[C@H](CCCNC(=N)N)NC(=O)[C@@H]1CCCN1C(=O)[C@H](CCCNC(=N)N)NC(=O)[C@@H]1CCCN1C(=O)[C@@H](N)CCCNC(=N)N)C(=O)N[C@@H](CCCCNC(=O)[C@@H]1CCCN1C(=O)[C@H](CCCNC(=N)N)NC(=O)[C@@H]1CCCN1C(=O)[C@H](CCCNC(=N)N)NC(=O)[C@@H]1CCCN1C(=O)[C@@H](N)CCCNC(=N)N)C(=O)N[C@@H](CCCNC(=N)N)C(=O)N1CCC[C@H]1C(=O)N[C@@H](CCCNC(=N)N)C(=O)N1CCC[C@H]1C(=O)N[C@@H](CCCNC(=N)N)C(=O)N1CCC[C@H]1C(N)=O (I: Octanoyl-GGGKKRPRPRP-NH2 / II: H-RPRPRP / III: H-RPRPRP; amide I:4-II:C, I:5-III:C) | 16 (≈ 45.6 µg/mL) | 8 (≈ 22.8 µg/mL) | 2 (≈ 5.7 µg/mL) | 64 (≈ 182 µg/mL) | 95 | 8 (≈ 22.8 µg/mL) | 4 (≈ 11.4 µg/mL) | 8 (≈ 22.8 µg/mL) | < 2 | 4 (≈ 11.4 µg/mL) | Non-toxic | 16 (≈ 45.6 µg/mL) |  |  |  |  |  |  | 
3 | CCCCCCCCCCCC(=O)NCC(=O)NCC(=O)NCC(=O)N[C@@H](CCCCNC(=O)[C@@H]1CCCN1C(=O)[C@H](CCCNC(=N)N)NC(=O)[C@@H]1CCCN1C(=O)[C@@H](N)CCCNC(=N)N)C(=O)N[C@@H](CCCCNC(=O)[C@@H]1CCCN1C(=O)[C@H](CCCNC(=N)N)NC(=O)[C@@H]1CCCN1C(=O)[C@@H](N)CCCNC(=N)N)C(=O)N[C@@H](CCCNC(=N)N)C(=O)N1CCC[C@H]1C(=O)N[C@@H](CCCNC(=N)N)C(=O)N1CCC[C@H]1C(N)=O (Lauroyl-GGGK([Pro-Arg-Pro-Arg])K([Pro-Arg-Pro-Arg])RPRP-NH2) | 32 (≈ 68.7 µg/mL) | 64 (≈ 137 µg/mL) | 16 (≈ 34.3 µg/mL) | 64 (≈ 137 µg/mL) | 95 | 64 (≈ 137 µg/mL) | 32 (≈ 68.7 µg/mL) | 64 (≈ 137 µg/mL) | < 2 | 32 (≈ 68.7 µg/mL) | Non-toxic | 64 (≈ 137 µg/mL) |  |  |  |  |  |  | 
4 | CCCC(=O)NCC(=O)NCC(=O)NCC(=O)N[C@@H](CCCCNC(=O)[C@@H]1CCCN1C(=O)[C@H](CCCNC(=N)N)NC(=O)[C@@H]1CCCN1C(=O)[C@@H](N)CCCNC(=N)N)C(=O)N[C@@H](CCCCNC(=O)[C@@H]1CCCN1C(=O)[C@H](CCCNC(=N)N)NC(=O)[C@@H]1CCCN1C(=O)[C@@H](N)CCCNC(=N)N)C(=O)N[C@@H](CCCNC(=N)N)C(=O)N1CCC[C@H]1C(=O)N[C@@H](CCCNC(=N)N)C(=O)N1CCC[C@H]1C(N)=O (Butyryl-GGGK([Pro-Arg-Pro-Arg])K([Pro-Arg-Pro-Arg])RPRP-NH2) | > 128 | > 128 | > 128 | > 128 | 95 | > 128 | > 128 | > 128 | < 2 | > 128 | Non-toxic | > 128 |  |  |  |  |  |  | 
5 | C[C@@H]1[C@H](O)[C@@H](C)/C=C/C=C/C=C/C=C/C=C/C=C/C=C/[C@H](O[C@@H]2O[C@H](C)[C@@H](O)[C@H](N)[C@@H]2O)C[C@@H]2O[C@](O)(C[C@@H](O)C[C@@H](O)[C@H](O)CC[C@@H](O)C[C@@H](O)CC(=O)O[C@H]1C)C[C@H](O)[C@H]2C(=O)O |  |  |  |  |  |  |  |  |  |  |  |  | Active | Active | Active | Active | Active | Active | 
6 | OC(Cn1cncn1)(Cn1cncn1)c1ccc(F)cc1F [FLUCONAZOLE] | 4 (≈ 1.23 µg/mL) | 8 (≈ 2.45 µg/mL) | 4 (≈ 1.23 µg/mL) | 4 (≈ 1.23 µg/mL) |  | 2 (≈ 0.613 µg/mL) | 2 (≈ 0.613 µg/mL) | > 128 |  | 2 (≈ 0.613 µg/mL) |  | 2 (≈ 0.613 µg/mL) |  |  |  |  |  |  | 
7 | CCCCCCCCCCCC(=O)NCC(=O)NCC(=O)NCC(=O)N[C@@H](CCCCNC(=O)[C@@H]1CCCN1C(=O)[C@H](CCCNC(=N)N)NC(=O)[C@@H]1CCCN1C(=O)[C@H](CCCNC(=N)N)NC(=O)[C@@H]1CCCN1C(=O)[C@@H](N)CCCNC(=N)N)C(=O)N[C@@H](CCCCNC(=O)[C@@H]1CCCN1C(=O)[C@H](CCCNC(=N)N)NC(=O)[C@@H]1CCCN1C(=O)[C@H](CCCNC(=N)N)NC(=O)[C@@H]1CCCN1C(=O)[C@@H](N)CCCNC(=N)N)C(=O)N[C@@H](CCCNC(=N)N)C(=O)N1CCC[C@H]1C(=O)N[C@@H](CCCNC(=N)N)C(=O)N1CCC[C@H]1C(=O)N[C@@H](CCCNC(=N)N)C(=O)N1CCC[C@H]1C(N)=O (I: Lauroyl-GGGKKRPRPRP-NH2 / II: H-RPRPRP / III: H-RPRPRP; amide I:4-II:C, I:5-III:C) | 8 (≈ 23.3 µg/mL) | 32 (≈ 93 µg/mL) | 16 (≈ 46.5 µg/mL) | 64 (≈ 186 µg/mL) | 95 | 8 (≈ 23.3 µg/mL) | 16 (≈ 46.5 µg/mL) | 8 (≈ 23.3 µg/mL) | < 2 | 32 (≈ 93 µg/mL) | Non-toxic | 32 (≈ 93 µg/mL) |  |  |  |  |  |  | 50
